Reference: US8426429B2, “2-amino-quinazoline derivatives useful as inhibitors of β-secretase (BACE)” (Jansssen Pharmaceutica N.V., priority 2004, dated 2013)

Experiments:
Type in all cases: biochemical
β-secretase (BACE) [1] = target: T1, β-secretase (BACE) (Homo sapiens, UniProt P56817); experiment: BACE Assay-1 (MCA-substrate, IC50); details: procedure of Example 158
T1 construct: purchased Panvera
Description: The following standards are reagents were used in this assay: Sodium Citrate trisodium salt dihydrate (Sigma), Citric Acid monohydrate (Merck), PEG8000 (Sigma), MCA-substrate (Bachem), β-secretase (BACE) (Panvera), 96-well plate zwart (Costar (Elscolab)), StatVal (Bachem).
The following standard assay buffer solution was prepared and used in this assay: 0.05 M, pH 5.0 mixture of sodium citrate trisodium salt dihydrate (9.56 g), citric acid monohydrate (3.68 g) and PEG8000 (0.50 g).
The MCA-substrate stock solution was prepared by mixing 10 mg MCA-substrate with 5 mL DMSO for a final solution concentration of 2.0 mg/mL. The substrate work solution was prepared by mixing 0.1 mL substrate in 1.90 mL assay buffer for a final concentration of 0.05 mM. The β-secretase (BACE) work solution was prepared by mixing 8 μL BACE in 2 mL assay buffer for a final concentration of 10 µg/mL.
The screen procedure for this assay was as follows. 60 μL of assay buffer was pippeted into each well of a 96-well plate. To each well was then pipetted 1 μL of test compound at the selected concentration. To each well was then added 20 μL of the β-secretase work solution and […] of the MCA-substrate stock solution.
The procedure for the blank was as follows. 80 μL of assay buffer was pipetted into each well to be used as a blank control. To each well was then added 1 μL of DMSO and 20 μL of MCA-substrate solution in each well.
The procedure for the positive control was as follows. 60 μL of assay buffer was pipetted into each well to be used as a positive control. To each well was then added 1 μL of DMSO, 20 μL of BACE work solution and 20 μL of MCA-substrate stock solution.
For test compounds, measured at multiple concentrations, the measured T0 and T60 values were used to calculate an IC50 value using Graphpad Software (or PIR).

β-secretase (BACE) [2] = target: T1, β-secretase (BACE); experiment: BACE Assay-2 (FS1 substrate, IC50 and Ki); details: procedure of Example 159, FS1 substrate
Description: (§1) The FS1-substrate stock solution was prepared in DMSO as a 10 mg/mL solution. The FS1-substrate working solution was prepared by diluting the 10 mg/mL stock solution with substrate assay buffer to a final concentration of […]. The β-secretase (BACE) working solution was prepared by diluting a 0.83 mg/mL BACE stock solution with enzyme assay buffer to a final concentration of 4 μg/mL.
Test compounds were dissolved in DMSO at 10 mM.
(§2) The procedure for this assay was as follows: 15 μL of BACE working solution was pipetted into each well of a 96-well plate. To each well was then pipetted 2 μL of test compound at the selected concentration. Test compound and BACE were then mixed with a pipettor and incubated for 20 min at room temperature. To each well was then added 10 μL of the FS1 substrate working solution.
(§3) The procedure for the positive control was as follows:15 μL of BACE working solution was pipetted into each well to be used as a positive control. To each well was then pipetted 2 μL of vehicle. Vehicle and BACE were then mixed with a pipettor and incubated for 20 min at room temperature. To each well was then added 10 μL of the FS1 substrate working solution.
For test compounds, measured at multiple concentrations, the measured T0 and T60 values were used to calculate an IC50 value using Graphpad Software (or PIR). For test compounds, Ki inhibition was determined as follows: For each compound concentration and positive control, rate of cleavage of substrate (Vi, where i=compound concentration in μM) was determined as Δ Fluorescence/Δ time (min). Cleavage rates (Vi) were plotted as a function of inhibitor concentration in μM [I]. The Ki was then determined by fitting the following equation to the graph of [I] vs Vi Y=aVmax/(50+24*(1+X/Ki)),

β-secretase (BACE) [3] = target: T1, β-secretase (BACE); experiment: BACE % Inhibition Assay ((Aedens)-[…]-(Dabcyl K-amide) substrate); details: % error ±10%; for inhibition at 3 µM: 3 μM compound; for inhibition at 10 µM: 10 μM compound
Description: as §1, with “substrate” for “FS1-substrate”
Test compounds were dissolved in DMSO to 10 mM.
as §2, with “The screening” for “The”, “the” for “the FS1”, “solution. The plates were then incubated for 1 hour at room temperature.” for “solution.”
The procedure for the blank was as follows. 15 μL of assay buffer was pipetted into each well to be used as a blank control. To each well was then added 2 μL of vehicle and 10 μL of substrate working solution. The plates were then incubated for 1 hour at room temperature.
as §3, with “follows: 15 μl” for “follows:15 μL”, “the” for “the FS1”, “solution. The plates were the incubated for 1 hour at room temperature.” for “solution.”
For test compounds, % inhibition was determined at each concentration as follows: […]

T1 sequence (P56817 46-501): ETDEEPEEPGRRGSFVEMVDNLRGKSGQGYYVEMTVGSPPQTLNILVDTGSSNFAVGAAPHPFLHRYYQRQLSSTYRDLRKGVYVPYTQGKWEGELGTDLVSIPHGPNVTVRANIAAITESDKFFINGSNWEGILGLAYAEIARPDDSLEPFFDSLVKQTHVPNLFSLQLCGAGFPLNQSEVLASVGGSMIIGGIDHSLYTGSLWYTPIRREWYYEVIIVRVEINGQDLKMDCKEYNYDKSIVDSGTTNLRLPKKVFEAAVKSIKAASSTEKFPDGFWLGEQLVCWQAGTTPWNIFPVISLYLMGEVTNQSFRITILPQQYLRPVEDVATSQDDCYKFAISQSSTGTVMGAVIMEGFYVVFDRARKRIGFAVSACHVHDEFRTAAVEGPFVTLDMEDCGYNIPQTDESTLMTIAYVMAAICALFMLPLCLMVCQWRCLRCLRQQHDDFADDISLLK

Structure (SMILES): CN(C(=O)CC(CC(=O)N(C)C1CCCCC1)N1Cc2cc(Oc3ccccc3)ccc2N=C1N)C1CCCCC1 [Compound 107, 3-(2-Amino-6-phenoxy-4H-quinazolin-3-yl)-pentanedioic acid bis-(cyclohexyl-methyl-amide)]
- IC50 (β-secretase (BACE) [1]): 0.82 µM
- IC50 (β-secretase (BACE) [2]): 4.58 µM
- Ki (β-secretase (BACE) [2]): 1.2 µM
- inhibition at 3 µM (β-secretase (BACE) [3]): 48%
- inhibition at 10 µM (β-secretase (BACE) [3]): 78%

Structure (SMILES): CCCN1Cc2cc(Oc3cccc(NC(=O)C4CCCCC4)c3)ccc2N=C1N [Compound 44]
- IC50 (β-secretase (BACE) [1]): 6.1 µM
- Ki (β-secretase (BACE) [2]): 3.3 µM
- inhibition at 3 µM (β-secretase (BACE) [3]): < 30%
- inhibition at 10 µM (β-secretase (BACE) [3]): 31%

Structure (SMILES): CCCN1Cc2cc(Oc3cccc(N(C#N)CC4CCCCC4)c3)ccc2N=C1N [Compound 56]
- IC50 (β-secretase (BACE) [1]): 0.97 µM
- IC50 (β-secretase (BACE) [2]): 5.4 µM
- Ki (β-secretase (BACE) [2]): 0.77 µM
- inhibition at 3 µM (β-secretase (BACE) [3]): 35%
- inhibition at 10 µM (β-secretase (BACE) [3]): 79%

Structure (SMILES): CCCC(CCC(=O)N(C)C1CCCCC1)N1Cc2cc(Oc3ccccc3)ccc2N=C1N (stereo not drawn) [Compound 86]
- IC50 (β-secretase (BACE) [1]): 0.048 µM
- Ki (β-secretase (BACE) [2]): 0.13 µM
- inhibition at 3 µM (β-secretase (BACE) [3]): 72%
- inhibition at 10 µM (β-secretase (BACE) [3]): 80%
